These results are taken from patent US9932556B2, “Method for in vitro differentiation of blood circulating cells into neuronal-like cells and applications thereof” (Centre National de la Recherche Scientifique (CNRS), priority 2013, dated 2018).

Data set [1] relates to pluripotent macrophages. The data set is described as follows: in vitro differentiation of monocytes-derived pluripotent macrophages into neuronal-like cells. To be noted: for effect on cells of increased concentration or number of doses: concentration increased above the recommended ones, or number of doses increased.
Protocol: (§1) Isolated monocytes were centrifuged and resuspended in DMEM/10% FBS at a concentration of 550 cells/ml. M-CSF (Macrophage colony-stimulating factor) was added to resuspended cells at a concentration of 1:2000 with a stock solution at 0.1 mg/ml.
(§2) 1.2 million monocytes were plated per each 9.6 cm^2 well of a 6-well plate, 550,000 monocytes per each 3.1 cm^2 well of a 12-well plate, and 6 million monocytes per each 25 cm^2 flask. To ensure that monocytes became confluent and evenly distributed, and thus maintained a good differentiation rate, flasks and plates remained horizontal throughout the protocol, plating was done slowly by gently releasing monocytes from the pipette. Plated cells were left at room temperature for at least 15 min so that cells became fully attached to the surface of the plates or flasks, and subsequently incubated at 37° C. with 5% CO2 until day 4.
(§3) Once the tubes of steps e) and f) were at 37° C., the growth factor BHA (butylated hydroxyanizole) was added to the culture medium of monocytes at a final concentration of 50 nM, as follows: • g) adding 10 μl of 100 mM BHA (0.0089 grams of BHA+500 μL ethanol) to the 10 ml of DMEM/10% FBS of step e), thereby obtaining a 100 μM BHA/DMEM solution. Then diluting 10 μl of this 100 μM solution with a further 10 ml of DMEM/10% FBS heated at 37° C., thereby obtaining a 100 nM BHA/DMEM solution; • h) discarding the medium of the 6- and 12-well plates containing the monocytes isolated from the same subject as the PBMCs of step b); • i) adding the BHA/DMEM solution and the conditioned medium to each well of the plates in a 1:1 ratio, i.e.: • 1.5 ml of the 100 nM BHA/DMEM of step g) and 1.5 ml of the PBMCs conditioned medium of step f), for each well of a 6-well plate, and • 1 ml of the 100 nM BHA/DMEM of step g) and 1 ml of the PBMCs conditioned medium of step f), for each well of a 12-well plate; • j) incubating the plates at 37° C. with 5% CO2 until day 10. […]
The test system of data set [2] is pluripotent macrophages.
Protocol: as §1, §2, §3

Where two headings read alike, the source gives them in different places.

Regarding “IGF-2: Insulin growth factor-2, exogenous factor tested as replacement”, the cell viability entry in the data set on pluripotent macrophages [1] (replacing IGF-1 by this factor) was “did not improve cell viability”.

Take “IGF-1: Recombinant human Insulin Growth Factor-1 (Peprotech)”: in the data set on pluripotent macrophages [2], the “effect on cells of increased concentration or number of doses” value is reported as “damaged the cells”.

As for `CC1=C(/C=C/C(C)=C/C=C/C(C)=C/C(=O)O)C(C)(C)CCC1` [RA, Retinoic Acid], in the data set with pluripotent macrophages [1], the “effect on cells of increased concentration or number of doses” value was “damaged the cells”.

As for `COc1ccc(O)c(C(C)(C)C)c1` [BHA, Butylated hydroxyanisole], the “effect on cells of increased concentration or number of doses” value with pluripotent macrophages [1] was “damaged the cells”.
